Reference: US20260345654A1, “2,8-DIHYDROXYQUINOLINE GLUCURONIDE DERIVATIVES WITH ENHANCED PROPERTIES FOR USE AS ANTICANCER, ANTIVIRAL, ANTIMICROBIAL, AND OTHER THERAPEUTIC APPLICATIONS” (priority 2023, published 2026)
Entries after “also recorded” stand apart in the source; their conditions may differ. Like-named read-outs stand apart in the source and are kept apart here.

What was measured:
[1] = Solubility; conditions: for solubility of copper complex: aqueous solutions
[2] = topical treatment of skin cancer; cited from earlier work
[3] = test system: A2780, A549 and MDA-MB-231 cells; conditions: cited from earlier work; for improvement with the addition of copper: with vs without copper
[4] = iodinated drug; cited from earlier work
[5] = comparison Table 5; prior art compound; cited from earlier work
[6] = comparison Table 5; prior art compound; cited from earlier work; remark: listed apart in the source
[7] = test system: cancer cell lines; conditions: comparison Table 5; prior art compound; cited from earlier work
[8] = test system: A549 cells; experiment: In vitro anti-proliferation (CellTiter-Glo, 72 hr), A549; type: cell-based, human; conditions: Homo sapiens, A549, 72 h, 72 hr
Description: (§1) Commercially available 8HQ and freshly synthesized G2-8HQ were prepared for in vitro anti-proliferative studies against the following cell lines with and without the presence of 10 μM Cu(+2): (1) A549: […]; (2) BT-549: epithelial cells from ductal tumor; (3) DU-145: human prostate cancer; (4) PANC-1: pancreatic cancer; (5) SU.86.86: a new adoptive pancreatic cell for immunotherapy studies; (6) RL: non-Hodgkin's lymphoma; (7) LnCAP, Prostate cancer cell line; (8) A431, a squamous cell carcinoma line; and (9) UACC-62 a malignant melanoma cell line.
(§2) With regard to the study protocol used, the objective was to conduct a study of the cytotoxicity of W1469 against several cancer cell lines. In the study protocol, preparations for the A549 (Lung) cell line screen are given as an example. The following materials were used: (1) FBS (2) RPMI-1640 medium supplemented with 10% FBS:’ and (3) A549 Cells. The four samples tested are referred to as Items 1-4 below and were placed at 4 °C upon arrival. These four samples were as follows: • Item 1: Tube A (W1469) (500 uM when FBS added) • Item 2: Tube B (W1469g) (1000 uM when FBS added) • Item 3: Tube C (W1469) • Item 4: Tube D (W1469g)
Items 1 and 2 are sterile ready for the addition of 1 ml of sterile FBS. Final concentrations after addition of 1 ml: 500 μM for Tube A and 1000 μM for Tube B. Items 3 and 4 are described further below. In the protocol, media containing 10% FBS and 20 μM CuCl2 are used in Tubes C and D only. A and B are serially diluted in media with 10% FBS and no added copper.
The protocol method proceeds as follows:
Seed 2, 96-well plates of A549 cells with 5,000 cells per well in a total volume of 50 μL per well. Leave overnight. See plate layout below for which wells to seed with 100 μL of media for media control. The following day, cells are exposed to compounds as described below.
For Items 1 & 2, to make the 500 μM and 1000 μM Stocks of samples 1 and 2 (W1469 and W1469g): Add 1 ml of sterile FBS to each Tube A and Tube B, swirl to mix.
To make appropriate 2× final dilutions of sample 1, Tube A (W1469), the following amounts are used: • 500 μM: 10 mL as supplied • 100 μM: 2 mL 500 μM Sample+8 mL media • 30 μM: 3 mL 100 μM Sample+7 mL media • 10 μM: 3 mL 30 μM Sample+6 mL media • 3 μM: 3 mL 10 μM Sample+7 mL media • 1 μM: 3 mL 3 μM Sample+6 mL media • 0.3 μM: 3 mL 1 μM Sample+7 mL media • 0.1 μM: 3 mL 0.3 μM Sample+6 mL media
To make appropriate 2× final dilutions of sample 2, Tube B (W1469g), the following amounts are used: • 1000 μM: 10 mL as supplied • 300 μM: 3 mL 1000 μM Sample+7 mL media • 100 μM: 3 mL 300 μM Sample+6 mL media • 30 μM: 3 mL 100 μM Sample+7 mL media • 10 μM: 3 mL 30 μM Sample+6 mL media • 3 μM: 3 mL 10 μM Sample+7 mL media • 1 μM: 3 mL 3 μM Sample+6 mL media • 0.3 μM: 3 mL 1 μM Sample+7 mL media
For Items 3 & 4, the following protocol was used to make 1000 uM Stocks of samples 3 and 4 (W1469 and W1469g): • 1: Dissolve 3.37 mg W1469 and excipient (Tube C) in 1 ml RPMI medium without added FBS and copper and swirl briefly until completely dissolved. Add 9 ml of RPMI media containing 10% FBS and 20 uM copper. Swirl to mix. Sterile filter the 10 ml with provided syringes and filters. This is now the 1000 μM stock solution W1469 ready for screening • 2: Dissolve 3.2 mg W1469g and excipient (Tube D) in 1 ml RPMI medium without added FBS and copper and swirl briefly until completely dissolved. […] This is now the 1000 μM stock solution W1469g ready for screening. […]

[9] = test system: RIF tumor; conditions: cited from earlier work
[10] = test system: BT-549 cells; experiment: In vitro anti-proliferation (CellTiter-Glo, 72 hr), BT-549; type: cell-based; conditions: Homo sapiens, BT-549, 72 h, 72 hr, read-out: IC50
Description: as §1, §2
(§3) Add 50 μL of above 2× stocks to appropriate wells to expose appropriate cells to the final dilutions of samples. Add 50 μL media to media and cell control wells and 50 μL media mix to vehicle control wells. Cells are exposed for 72 hr. Following a 72 hr exposure to Sample, perform a CTG assay on all remaining plates.
(§4) At the end of the 72 hr exposure period, remove plates for CellTiter-Glo assay from 37 °C, 5% CO2 incubator and place on the bench at room temperature for 30 mins. Add 100 μL CellTiter-Glo reagent, mix for 2 mins, followed by a further 10 min incubation at room temperature. Record luminescence. Tables showing the resulting plate layouts are included below/

[11] = test system: DU-145 cells; experiment: In vitro anti-proliferation (CellTiter-Glo, 72 hr), DU-145; type: cell-based, human; conditions: Homo sapiens, DU-145, 72 h, 72 hr, read-out: IC50
Description: as §1, §2, §3, §4

[12] = test system: RL cells; experiment: In vitro anti-proliferation (CellTiter-Glo, 72 hr), RL; type: cell-based; conditions: for IC50: 72 hr, read-out: IC50
Description: as §1, §2, §3, §4

[13] = test system: SU.86.86 cells; experiment: In vitro anti-proliferation (CellTiter-Glo, 72 hr), SU.86.86; type: cell-based; conditions: Homo sapiens, SU.86.86, 72 h, 72 hr, read-out: IC50
Description: as §1, §2, §3, §4

[14] = test system: PANC-1 cells; experiment: In vitro anti-proliferation (CellTiter-Glo, 72 hr), PANC-1; type: cell-based; conditions: Homo sapiens, PANC-1, 72 h, 72 hr
Description: as §1, §2, §3, §4

[15] = In vitro anti-proliferation of commercial G8HQ; type: cell-based
Description: The present inventors obtained a commercial sample of G8HQ and tested it in vitro under conditions with copper added and found a possible reading of >500 uM IC 50, indicating no anti-proliferative activity, but such examination was cursory and not conclusive. Of further relevance, Oliveri 2012 designed an O-linked glucose adducts to the 8-hydroxy position of both 8HQ and CQ (FIG. 17). The resulting pro-drug form as expected abrogated the copper binding and eliminated the anti-cancer activity. […] The authors reasoned that the glucose adduct would improve solubility, and the glucose receptors over-populated on the surface of cancer cells. The anaerobic metabolism and high dependence on glucose that characterizes most cancers is a phenomenon known as the “Warburg Effect”.

[16] = Chemical stability; type: physicochemical
[17] = +Cu (10 μM), G2-8HQ values based on MW of apo form (337)

Oc1cccc2cccnc12.[Cu+2] [8HQ copper complex, reference compound]
solubility of copper complex [1]: aqueous insoluble

O=c1[nH]cc(F)c(=O)[nH]1 [Fluorouracil]
Side Effects [2]: tender skin, serious allergic reaction

CC(C)Cn1cnc2c(N)nc3ccccc3c21 [Zyclara, Alara (Imiquimod), Imiquimod]
Side Effects [2]: headache or backpain, Diarrhea; also recorded: Redness, bleeding or flaking skin, swelling,; also recorded: blistering, sting or pain. Fatigue or tiredness,

Oc1ccc2cccc(O)c2n1 [2-8HQ, 2,8-quinolinediol]
solubility ([1]; water / aqueous): poor aqueous solubility; also recorded: insoluble in aqueous systems

OC[C@H]1O[C@@H](Oc2c(I)cc(Cl)c3cccnc23)[C@H](O)[C@@H](O)[C@@H]1O [GluCQ, 5-chloro-7-iodo-8-quinolinyl-β-D-glucopyranoside]
enhancement of IC50 by copper ([3]; 20 μM Cu^+2): 9 × | improvement with the addition of copper [3]: about 2 fold

O=C(O)[C@H]1O[C@@H](Oc2cccc3c(I)ccnc23)[C@H](O)[C@@H](O)[C@@H]1O [4-iodo, 8-hydroxy beta-D-glucopyranosiduronic acid]
excretion [4]: mainly urinary

O=C(O)[C@H]1O[C@@H](Oc2cccc3cccnc23)[C@H](O)[C@@H](O)[C@@H]1O [GA8HQ]
Complexes w/copper [5]: No | Solubility of Cu Complex/aqueous [6]: None, (8HQ poor) | Active w/o Cu (cancer) [7]: No

Oc1cccc2cccnc12 [8HQ, 8-hydroxyquinoline, reference compound]
IC50 [8, 17]: 29 µM | IC50 ([8]; −Cu): 12.7 µM | tissue levels of 8-OHQ ([9]; all tissues, 2.0 to 24 hr after glucuronide injection, n = 3): These data points, with n = 3 animals, also failed to show significant tissue levels of 8-OHQ. | IC50 [10, 17]: 24.5 µM | IC50 ([10]; −Cu): 9.9 µM | IC50 [11, 17]: 11.6 µM | IC50 ([11]; −Cu): 11.6 µM | IC50 [12, 17]: 0.07 µM | IC50 ([12]; Homo sapiens, RL, 72 h, +Cu (10 μM), G2-8HQ values based on MW of apo form (337)): 0.06 µM | IC50 ([12]; Homo sapiens, RL, 72 h, −Cu): 0.62 µM | increase of activity/cytotoxicity in presence of copper ([12]; RL, +Cu^+2 (10 or 20 μM) vs −Cu): 9 fold | IC50 [13, 17]: 46 µM | IC50 ([13]; −Cu): > 50 µM | cytotoxicity change with addition of Cu^+2 ([3]; addition of Cu^+2 to the media): significantly increased the cytotoxicity | activity relative to CQ ([3]; unmodified 8HQ vs CQ): 9 to 27 × | IC50 [14, 17]: 11.2 µM | IC50 ([14]; −Cu): 9.3 µM | solubility ([1]; DMSO): soluble | solubility ([1]; water / aqueous): sparingly soluble

O=C(O)[C@H]1O[C@@H](Oc2cccc3cccnc23)[C@H](O)[C@@H](O)[C@@H]1O [G8HQ, 8-quinolinyl beta-D-glucopyranosiduronic acid]
tumor uptake ([9]; after acidification of tumors by hyperglycemia, mice): rapid and significantly increased | retention ([9]; after tumor acidification, mice): prolonged retention in tumor and the colon over all other tissues | tumor or general tissue partitioning ([9]; initial animal experiments, no acidification, mice): no significant tumor or general tissue partitioning | metabolic clearance / elimination time ([9]; mice, post injection, listed as 8GHQ): 3 h | Complexes w/copper [5]: No | Solubility of Cu Complex/aqueous [6]: None | Active w/o Cu (cancer) [7]: No | activity ([15]; in vitro, without acidification): no activity | IC50 ([15]; with copper added, cursory and not conclusive): > 500 µM

NCC(=O)CCC(=O)O [Aminolaevulinic acid (Levulan), Aminolaevulinic acid]
Side Effects [2]: Burning, Itching or Tingling, Rash or redness; also recorded: Light sensitivity (bright lights/sunshine)

OC[C@H]1O[C@@H](Oc2cccc3cccnc23)[C@H](O)[C@@H](O)[C@@H]1O [Glu8HQ, 8-quinolinyl beta-D-glucopyranoside]
activity relative to Glu8CQ ([3]; 20 μM Cu^+2): 10 × | enhancement of IC50 by copper ([3]; 20 μM Cu^+2): 18 × | activity vs CQ analog ([3]; glucose derivatives, FIG. 18): greater activity than the CQ analog (GluCQ) | improvement with the addition of copper [3]: 10-20 fold

O=C(O)[C@H]1O[C@@H](Oc2ccc3cccc(O)c3n2)[C@H](O)[C@@H](O)[C@@H]1O.[Cu+2] [G2-8HQ copper complex]
stability of copper complex ([16]; in excipient, 24 hours): precipitation after 24 hours | stability of copper complex ([16]; pH values less than 8): rapid precipitated insoluble 2-8HQ copper complex | solubility of copper complex [1]: highly soluble in aqueous solutions
